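A five-concentration, 48-hour dose response in 96-well plates underlies each endpoint, interpolated linearly between surrounding concentrations. At the GI50, growth is halved.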 Calls of active or inactive are those of the source. Rule as the data show it: active = GI50 up to about 1.1 µM and inactive = higher.
Tests used:
Assay in all cases: NCI tumour cell line growth inhibition, 48 h
IGROV-1 = test system: IGROV-1
CCRF-CEM = test system: CCRF-CEM
K562 = test system: K562
T47D = test system: T47D
MDA-MB-231 = test system: MDA-MB-231
OVCAR-8 = test system: OVCAR-8
OVCAR-5 = test system: OVCAR-5
OVCAR-3 = test system: OVCAR-3
MDA-MB-435 = test system: MDA-MB-435
ACHN = test system: ACHN
SK-MEL-5 = test system: SK-MEL-5
A549 = test system: A549
HCT-15 = test system: HCT-15
786-0 = test system: 786-0
SN12C = test system: SN12C
MOLT-4 = test system: MOLT-4
UACC-257 = test system: UACC-257
NCI-H226 = test system: NCI-H226
NCI-H522 = test system: NCI-H522
SNB-19 = test system: SNB-19
TK-10 = test system: TK-10
RPMI-8226 = test system: RPMI-8226
DU-145 = test system: DU-145
SK-OV-3 = test system: SK-OV-3
HT-29 = test system: HT-29
LOX IMVI = test system: LOX IMVI
M14 = test system: M14
HCT-116 = test system: HCT-116
BT-549 = test system: BT-549
HOP-62 = test system: HOP-62
CAKI-1 = test system: CAKI-1
SF-295 = test system: SF-295
SF-268 = test system: SF-268
OVCAR-4 = test system: OVCAR-4
MCF7 = test system: MCF7
SW-620 = test system: SW-620
UACC-62 = test system: UACC-62
Malme-3M = test system: Malme-3M
Hs-578T = test system: Hs-578T
UO-31 = test system: UO-31
HL-60 = test system: HL-60
NCI-H23 = test system: NCI-H23
COLO 205 = test system: COLO 205
A498 = test system: A498
SK-MEL-2 = test system: SK-MEL-2
SK-MEL-28 = test system: SK-MEL-28
EKVX = test system: EKVX
KM12 = test system: KM12
HOP-92 = test system: HOP-92
SF-539 = test system: SF-539
HCC 2998 = test system: HCC 2998
NCI/ADR-RES = test system: NCI/ADR-RES
SNB-75 = test system: SNB-75
U-251 = test system: U-251
MDA-N = test system: MDA-N
NCI-H460 = test system: NCI-H460
PC-3 = test system: PC-3
RXF 393 = test system: RXF 393

**Q.** For `Fc1ccc(C(OCCN2CC3CC2CN3CCCc2ccccc2)c2ccc(F)cc2)cc1` (centres undefined), which GI50 (IGROV-1) is on record?
**A.** 10.1 µM (inactive)

**Q.** What about the GI50 (CCRF-CEM) of the same compound?
**A.** 4.52 µM (inactive)

**Q.** And the GI50 (K562)?
**A.** 3.11 µM (inactive)

**Q.** What about the GI50 (T47D) of the same compound?
**A.** 2.07 µM (inactive)

**Q.** What about the GI50 (MDA-MB-231) of the same compound?
**A.** 4.61 µM (inactive)

**Q.** And the GI50 (OVCAR-8)?
**A.** 3.23 µM (inactive)

**Q.** What about the GI50 (OVCAR-5) of the same compound?
**A.** 11.3 µM (inactive)

**Q.** What about the GI50 (OVCAR-3) of the same compound?
**A.** 9.98 µM (inactive)

**Q.** And the GI50 (MDA-MB-435)?
**A.** 5.3 µM (inactive)

**Q.** What about the GI50 (ACHN) of the same compound?
**A.** 11.5 µM (inactive)

**Q.** What about the GI50 (SK-MEL-5) of the same compound?
**A.** 1.84 µM (inactive)

**Q.** What about the GI50 (A549) of the same compound?
**A.** 12 µM (inactive)

**Q.** And the GI50 (HCT-15)?
**A.** 4.63 µM

**Q.** What about the GI50 (786-0) of the same compound?
**A.** 5.53 µM (inactive)

**Q.** And the GI50 (SN12C)?
**A.** 10.3 µM (inactive)

**Q.** And the GI50 (MOLT-4)?
**A.** 3.61 µM (inactive)

**Q.** What about the GI50 (UACC-257) of the same compound?
**A.** 3.69 µM (inactive)

**Q.** What about the GI50 (NCI-H226) of the same compound?
**A.** 7.23 µM (inactive)

**Q.** What about the GI50 (NCI-H522) of the same compound?
**A.** 7.98 µM (inactive)

**Q.** And the GI50 (SNB-19)?
**A.** 13.3 µM (inactive)

**Q.** And the GI50 (TK-10)?
**A.** 11.2 µM (inactive)

**Q.** What about the GI50 (RPMI-8226) of the same compound?
**A.** 2.88 µM (inactive)

**Q.** And the GI50 (DU-145)?
**A.** 10.1 µM (inactive)

**Q.** And the GI50 (SK-OV-3)?
**A.** 15 µM (inactive)

**Q.** And the GI50 (HT-29)?
**A.** 3.85 µM (inactive)

**Q.** What about the GI50 (LOX IMVI) of the same compound?
**A.** 5.87 µM (inactive)

**Q.** What about the GI50 (M14) of the same compound?
**A.** 2.02 µM (inactive)

**Q.** And the GI50 (HCT-116)?
**A.** 5.86 µM (inactive)

**Q.** And the GI50 (BT-549)?
**A.** 11.8 µM (inactive)

**Q.** And the GI50 (HOP-62)?
**A.** 11.4 µM (inactive)

**Q.** And the GI50 (CAKI-1)?
**A.** 10.1 µM (inactive)

**Q.** And the GI50 (SF-295)?
**A.** 6.19 µM (inactive)

**Q.** And the GI50 (SF-268)?
**A.** 10.2 µM (inactive)

**Q.** What about the GI50 (OVCAR-4) of the same compound?
**A.** 8.95 µM (inactive)

**Q.** What about the GI50 (MCF7) of the same compound?
**A.** 6.08 µM (inactive)

**Q.** What about the GI50 (SW-620) of the same compound?
**A.** 6.53 µM (inactive)

**Q.** And the GI50 (UACC-62)?
**A.** 11.1 µM (inactive)

**Q.** What about the GI50 (Malme-3M) of the same compound?
**A.** 2.93 µM (inactive)

**Q.** What about the GI50 (Hs-578T) of the same compound?
**A.** 10.1 µM (inactive)

**Q.** What about the GI50 (UO-31) of the same compound?
**A.** 12.3 µM (inactive)

**Q.** What about the GI50 (HL-60) of the same compound?
**A.** 2.71 µM (inactive)

**Q.** What about the GI50 (NCI-H23) of the same compound?
**A.** 11.4 µM (inactive)

**Q.** And the GI50 (COLO 205)?
**A.** 1.68 µM (inactive)

**Q.** What about the GI50 (A498) of the same compound?
**A.** 4.98 µM (inactive)

**Q.** What about the GI50 (SK-MEL-2) of the same compound?
**A.** 9.95 µM (inactive)

**Q.** And the GI50 (SK-MEL-28)?
**A.** 2.96 µM (inactive)

**Q.** What about the GI50 (EKVX) of the same compound?
**A.** 6.01 µM (inactive)

**Q.** What about the GI50 (KM12) of the same compound?
**A.** 4.85 µM (inactive)

**Q.** And the GI50 (HOP-92)?
**A.** 11.9 µM (inactive)

**Q.** And the GI50 (SF-539)?
**A.** 2.37 µM (inactive)

**Q.** And the GI50 (HCC 2998)?
**A.** 2.38 µM (inactive)

**Q.** What about the GI50 (NCI/ADR-RES) of the same compound?
**A.** 5.64 µM (inactive)

**Q.** And the GI50 (SNB-75)?
**A.** 0.955 µM (active)

**Q.** What about the GI50 (U-251) of the same compound?
**A.** 6.71 µM (inactive)

**Q.** What about the GI50 (MDA-N) of the same compound?
**A.** 6.27 µM (inactive)

**Q.** What about the GI50 (NCI-H460) of the same compound?
**A.** 4.48 µM (inactive)

**Q.** And the GI50 (PC-3)?
**A.** 5.98 µM (inactive)

**Q.** Which results are given for `Cc1ccc(S(=O)(=O)CN2C(=O)C(c3ccccc3)(c3ccccc3)C23OC(c2ccc(Cl)cc2)=CC3=O)cc1` (centres undefined)?
**A.** GI50 (IGROV-1): > 10 µM (inactive); GI50 (CCRF-CEM): > 10 µM (inactive); GI50 (K562): > 10 µM (inactive); GI50 (T47D): > 10 µM (inactive); GI50 (MDA-MB-231): > 10 µM (inactive); GI50 (OVCAR-8): > 10 µM (inactive); GI50 (OVCAR-5): > 10 µM (inactive); GI50 (OVCAR-3): > 10 µM (inactive); GI50 (MDA-MB-435): > 10 µM (inactive); GI50 (ACHN): > 10 µM (inactive); GI50 (SK-MEL-5): > 10 µM (inactive); GI50 (A549): > 10 µM (inactive); GI50 (HCT-15): > 10 µM; GI50 (786-0): > 10 µM (inactive); GI50 (RXF 393): > 10 µM (inactive); GI50 (SN12C): > 10 µM (inactive); GI50 (MOLT-4): > 10 µM (inactive); GI50 (UACC-257): > 10 µM (inactive); GI50 (NCI-H226): > 10 µM (inactive); GI50 (NCI-H522): > 10 µM (inactive); GI50 (SNB-19): > 10 µM (inactive); GI50 (TK-10): > 10 µM (inactive); GI50 (DU-145): > 10 µM (inactive); GI50 (SK-OV-3): > 10 µM (inactive); GI50 (HT-29): > 10 µM (inactive); GI50 (LOX IMVI): > 10 µM (inactive); GI50 (M14): > 10 µM (inactive); GI50 (HCT-116): > 10 µM (inactive); GI50 (BT-549): > 10 µM (inactive); GI50 (HOP-62): > 10 µM (inactive); GI50 (CAKI-1): > 10 µM (inactive); GI50 (SF-295): > 10 µM (inactive); GI50 (SF-268): > 10 µM (inactive); GI50 (OVCAR-4): > 10 µM (inactive); GI50 (MCF7): > 10 µM (inactive); GI50 (SW-620): > 10 µM (inactive); GI50 (UACC-62): > 10 µM (inactive); GI50 (Malme-3M): > 10 µM (inactive); GI50 (Hs-578T): > 10 µM (inactive); GI50 (UO-31): > 10 µM (inactive); GI50 (HL-60): > 10 µM (inactive); GI50 (NCI-H23): > 10 µM (inactive); GI50 (COLO 205): > 10 µM (inactive); GI50 (A498): > 10 µM (inactive); GI50 (SK-MEL-2): > 10 µM (inactive); GI50 (SK-MEL-28): > 10 µM (inactive); GI50 (EKVX): > 10 µM (inactive); GI50 (KM12): > 10 µM (inactive); GI50 (HOP-92): > 10 µM (inactive); GI50 (SF-539): > 10 µM (inactive); GI50 (HCC 2998): > 10 µM (inactive); GI50 (NCI/ADR-RES): > 10 µM (inactive); GI50 (SNB-75): > 10 µM (inactive); GI50 (U-251): > 10 µM (inactive); GI50 (MDA-N): > 10 µM (inactive); GI50 (NCI-H460): > 10 µM (inactive); GI50 (PC-3): 4.07 µM (inactive)
